Measurements reported in patent US6949542B2, “Dihydro-benzo[b][1,4]diazepin-2-one derivatives” (Hoffman-La Roche Inc., priority 2002, dated 2005).

melting point [°C]	Structure (SMILES)
233 to 237	Cc1ccc(-c2cccc(C3=Nc4cc(N(C)C)c(C(F)(F)F)cc4NC(=O)C3)c2)cn1 [Example 10, 7-Dimethylamino-4-[3-(6-methyl-pyridin-3-yl)-phenyl]-8-trifluoromethyl-1,3-dihydro-benzo[b][1,4]diazepin-2-one]
219 to 221	CCCOc1cc2c(cc1C(F)(F)F)NC(=O)CC(c1cccc(-c3cccnc3)c1)=N2 [Example 215, 7-Propoxy-4-(3-pyridin-3-yl-phenyl)-8-trifluoromethyl-1,3-dihydro-benzo[b][1,4]diazepin-2-one]
174	Cc1ccc(-c2cccc(C3=Nc4cc(N(C)C)c(C(F)(F)F)cc4NC(=O)C3)c2)nn1 [Example 15, 7-Dimethylamino-4-[3-(6-methyl-pyridazin-3-yl)-phenyl]-8-trifluoromethyl-1,3-dihydro-benzo[b][1,4]diazepin-2-one]
216	Cc1cc2c(cc1C(F)(F)F)N=C(c1cccc(-c3cnccn3)c1)CC(=O)N2 [Example 93, 8-Methyl-4-(3-pyrazin-2-yl-phenyl)-7-trifluoromethyl-1,3-dihydro-benzo[b][1,4]diazepin-2-one]
196	Cc1cc2c(cc1Cl)NC(=O)CC(c1cccc(-c3ccnc(C(C)C)c3)c1)=N2 [Example 270, 8-Chloro-4-[3-(2-isopropyl-pyridin-4-yl)-phenyl]-7-methyl-1,3-dihydro-benzo[b][1,4]diazepin-2-one]
268	O=C1CC(c2cccc(-c3cnccn3)c2)=Nc2cc(Cl)c(Cl)cc2N1 [Example 88, 7,8-Dichloro-4-(3-pyrazin-2-yl-phenyl)-1,3-dihydro-benzo[b][1,4]diazepin-2-one]
208	Cc1cc(-c2cccc(C3=Nc4cc(C)c(Cl)cc4NC(=O)C3)c2)c(C)cn1 [Example 134, 8-Chloro-4-[3-(2,5-dimethyl-pyridin-4-yl)-phenyl]-7-methyl-1,3-dihydro-benzo[b][1,4]diazepin-2-one]
213	CC(C)Cc1cc(-c2cccc(C3=Nc4cc(Cl)c(C(F)(F)F)cc4NC(=O)C3)c2)ccn1 [Example 278, 7-Chloro-4-[3-(2-isobutyl-pyridin-4-yl)-phenyl]-8-trifluoromethyl-1,3-dihydro benzo[b][1,4]diazepin-2-one]
202	CC(C)c1cc(-c2cccc(C3=Nc4cc(OCC(F)(F)F)c(C(F)(F)F)cc4NC(=O)C3)c2)ccn1 [Example 275, 4-[3-(2-Isopropyl-pyridin-4-yl)-phenyl]-7-(2,2,2-trifluoro-ethoxy)-8-trifluoromethyl-1,3-dihydro-benzo[b][1,4]diazepin-2-one]
190 to 193	Cc1cc(-c2cccc(C3=Nc4ccc(OC(F)(F)F)cc4NC(=O)C3)c2)cc(C)n1 [Example 213, 4-[3-(2,6-Dimethyl-pyridin-4-yl)-phenyl]-8-trifluoromethoxy-1,3-dihydro-benzo[b][1,4]diazepin-2-one]
198 to 201	O=C1CC(c2cccc(-c3cccnc3)c2)=Nc2cc(N3CCOCC3)c(C(F)(F)F)cc2N1 [Example 188, 7-Morpholin-4-yl-4-(3-pyridin-3-yl-phenyl)-8-trifluoromethyl-1,3-dihydro-benzo[b][1,4]diazepin-2-one]
232 to 233	CNc1cc(-c2cccc(C3=Nc4cc(C)c(C(F)(F)F)cc4NC(=O)C3)c2)ncn1 [Example 330, 7-Methyl-4-[3-(6-methylamino-pyrimidin-4-yl)-phenyl]-8-trifluoromethyl-1,3-dihydro-benzo[b][1,4]diazepin-2-one]
213 to 214	O=C1CC(c2cccc(-c3ccc(C4CC4)nc3)c2)=Nc2cc(OCC(F)(F)F)c(C(F)(F)F)cc2N1 [Example 166, 4-[3-(6-Cyclopropyl-pyridin-3-yl)-phenyl]-7-(2,2,2-trifluoro-ethoxy)-8-trifluoromethyl-1,3-dihydro-benzo[b][1,4]diazepin-2-one]
241 to 242	Cc1nccc(-c2cccc(C3=Nc4cc(Cl)c(Cl)cc4NC(=O)C3)c2)n1 [Example 306, 7,8-Dichloro-4-[3-(2-methyl-pyrimidin-4-yl)-phenyl]-1,3-dihydro-benzo[b][1,4]diazepin-2-one]
197	CCCN(C)c1cc2c(cc1C(F)(F)F)NC(=O)CC(c1cccc(-c3cncnc3)c1)=N2 [Example 99, 7-(Methyl-propyl-amino)-4-(3-pyrimidin-5-yl-phenyl)-8-trifluoromethyl-1,3-dihydro-benzo[b][1,4]diazepin-2-one]
227 to 230	O=C1CC(c2cccc(-c3ncccn3)c2)=Nc2cc(Cl)c(Cl)cc2N1 [Example 340, 7,8-Dichloro-4-(3-pyrimidin-2-yl-phenyl)-1,3-dihydro-benzo[b][1,4]diazepin-2-one]
226 to 227	Cc1cc(-c2cccc(C3=Nc4cc(C)c(Cl)cc4NC(=O)C3)c2)ncn1 [Example 309, 8-Chloro-7-methyl-4-[3-(6-methyl-pyrimidin-4-yl)-phenyl]-1,3-dihydro-benzo[b][1,4]diazepin-2-one]

melting point [°C]	Structure (SMILES)
215	CCOc1cc2c(cc1C(F)(F)F)NC(=O)CC(c1cccc(-c3cc(C)nc(CC)c3)c1)=N2 [Example 250, 7-Ethoxy-4-[3-(2-ethyl-6-methyl-pyridin-4-yl)-phenyl]-8-trifluoromethyl-1,3-dihydro-benzo[b][1,4]diazepin-2-one]
236 to 237	CN(C)c1cc2c(cc1-c1ccccc1F)NC(=O)CC(c1cccc(-c3ccncc3)c1)=N2 [Example 39, 7-Dimethylamino-8-(2-fluoro-phenyl)-4-(3-pyridin-4-yl-phenyl)-1,3-dihydro-benzo[b][1,4]diazepin-2-one]
213 to 214	COCCOc1cc2c(cc1C(F)(F)F)NC(=O)CC(c1cccc(-c3cc(C)nc(C)c3)c1)=N2 [Example 243, 4-[3-(2,6-Dimethyl-pyridin-4-yl)-phenyl]-7-(2-methoxy-ethoxy)-8-trifluoromethyl-1,3-dihydro-benzo[b][1,4]diazepin-2-one]
203 to 204	O=C1CC(c2cccc(-c3cccnc3)c2)=Nc2cc(OCC(F)(F)F)c(Cl)cc2N1 [Example 202, 8-Chloro-4-(3-pyridin-3-yl-phenyl)-7-(2,2,2-trifluoro-ethoxy)-1,3-dihydro-benzo[b][1,4]diazepin-2-one]
224	Cc1cc2c(cc1Cl)NC(=O)CC(c1cccc(-c3ccnc(C)c3C)c1)=N2 [Example 140, 8-Chloro-4-[3-(2,3-dimethyl-pyridin-4-yl)-phenyl]-7-methyl-1,3-dihydro-benzo[b][1,4]diazepin-2-one]
236 to 238	COCCNc1nc(C)cc(-c2cccc(C3=Nc4cc(C)c(C(F)(F)F)cc4NC(=O)C3)c2)n1 [Example 324, 4-{3-[2-(2-Methoxy-ethylamino)-6-methyl-pyrimidin-4-yl]-phenyl}-7-methyl-8-trifluoromethyl-1,3-dihydro-benzo[b][1,4]diazepin-2-one]
229	CCOc1cc2c(cc1C(F)(F)F)NC(=O)CC(c1cccc(-c3ccccn3)c1)=N2 [Example 43, 7-Ethoxy-4-(3-pyridin-2-yl-phenyl)-8-trifluoromethyl-1,3-dihydro-benzo[b][1,4]diazepin-2-one]
204	CN(C)c1cc2c(cc1C(F)(F)F)NC(=O)CC(c1cccc(-c3cnccn3)c1)=N2 [Example 90, 7-Dimethylamino-4-(3-pyrazin-2-yl-phenyl)-8-trifluoromethyl-1,3-dihydro-benzo[b][1,4]diazepin-2-one]
256	Cc1cc(-c2cccc(C3=Nc4cc(N(C)C)c(C(F)(F)F)cc4NC(=O)C3)c2)cc(C)n1 [Example 409, 7-Dimethylamino-4-[3-(2,6-dimethyl-pyridin-4-yl)-phenyl]-8-trifluoromethyl-1,3-dihydro-benzo[b][1,4]diazepin-2-one]
222	O=C1CC(c2cccc(-c3cncnc3)c2)=Nc2cc(Cl)c(C(F)(F)F)cc2N1 [Example 95, 7-Chloro-4-(3-pyrimidin-5-yl-phenyl)-8-trifluoromethyl-1,3-dihydro-benzo[b][1,4]diazepin-2-one]
192 to 194	Cc1ncccc1-c1cccc(C2=Nc3ccc(-c4ccccc4F)cc3NC(=O)C2)c1 [Example 19, 8-(2-Fluoro-phenyl)-4-[3-(2-methyl-pyridin-3-yl)-phenyl]-1,3-dihydro-benzo[b][1,4]diazepin-2-one]
227	Cc1cc(-c2cccc(C3=Nc4cc(OCC(F)(F)F)c(C(F)(F)F)cc4NC(=O)C3)c2)cc(CO)n1 [Example 405, 4-[3-(2-Hydroxymethyl-6-methyl-pyridin-4-yl)-phenyl]-7-(2,2,2-trifluoro-ethoxy)-8-trifluoromethyl-1,3-dihydro-benzo[b][1,4]diazepin-2-one]
209 to 210	CN(C)c1cc2c(cc1C(F)(F)F)NC(=O)CC(c1cccc(-c3ccncn3)c1)=N2 [Example 298, 7-Dimethylamino-4-(3-pyrimidin-4-yl-phenyl)-8-trifluoromethyl-1,3-dihydro-benzo[b][1,4]diazepin-2-one]
207	O=C1CC(c2cccc(-c3cccnc3)c2)=Nc2ccc(OC(F)(F)F)cc2N1 [Example 185, 4-(3-Pyridin-3-yl-phenyl)-8-trifluoromethoxy-1,3-dihydro-benzo[b][1,4]diazepin-2-one]
185	CCOc1cc2c(cc1Cl)NC(=O)CC(c1cccc(-c3ccnc(C)c3)c1)=N2 [Example 182, 8-Chloro-7-ethoxy-4-[3-(2-methyl-pyridin-4-yl)-phenyl]-1,3-dihydro-benzo[b][1,4]diazepin-2-one]
203	CCOc1cc2c(cc1C(F)(F)F)NC(=O)CC(c1cccc(-c3ccnc(CC(C)C)c3)c1)=N2 [Example 280, 4-[3-(2-Isobutyl-pyridin-4-yl)-phenyl]-7-ethoxy-8-trifluoromethyl-1,3-dihydro-benzo[b][1,4]diazepin-2-one]
244	CCOc1cc2c(cc1C(F)(F)F)NC(=O)CC(c1cccc(-c3ccnc(C4CC4)c3)c1)=N2 [Example 348, 4-[3-(2-Cyclopropyl-pyridin-4-yl)-phenyl]-7-ethoxy-8-trifluoromethyl-1,3-dihydro-benzo[b][1,4]diazepin-2-one]
